Like-named read-outs stand apart in the source and are kept apart here.
Tests used:
[1] = system: MALME-3M; assay: NCI 60 antitumor screening (single dose / five doses); format: cell-based; conditions: Homo sapiens; for inhibition at 10 µM: read-out: Growth inhibition percentage (GI %)
[2] = system: NCI/ADR-RES; assay: as above; format: cell-based; conditions: Homo sapiens; for inhibition at 10 µM: read-out: Growth inhibition percentage (GI %)
[3] = system: EKVX; assay: as above; format: cell-based; conditions: Homo sapiens; for inhibition at 10 µM: read-out: Growth inhibition percentage (GI %)
[4] = system: SW-620; assay: as above; format: cell-based, human; conditions: Homo sapiens
[5] = system: SR; assay: as above; format: cell-based; conditions: Homo sapiens; for inhibition at 10 µM: read-out: Growth inhibition percentage (GI %)
[6] = system: RPMI-8226; assay: as above; format: cell-based; conditions: Homo sapiens
[7] = system: OVCAR-8; assay: NCI 60 antitumor screening (single dose); format: cell-based; conditions: Homo sapiens; OVCAR-8 (ovarian cancer), single dose 10 μM; read-out: Growth inhibition percentage (GI %)
Method in brief: (§1)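 At one concentration (10 μM), compounds are run in triplicate on 60 human cancer lines per the NCI method. Treated-cell growth is recorded as G%. Reported inhibition equals 100 − G%.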

[8] = system: KM 12; assay: NCI 60 antitumor screening (single dose); format: cell-based; conditions: Homo sapiens, KM12; KM 12 (colon cancer), single dose 10 μM; read-out: Growth inhibition percentage (GI %)
Method in brief: as §1

[9] = system: HCC-2998; assay: NCI 60 antitumor screening (single dose); format: cell-based; conditions: Homo sapiens; HCC-2998 (colon cancer), single dose 10 μM; read-out: Growth inhibition percentage (GI %)
Method in brief: (§2)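 NCI-60 protocol: single 10 μM dose against each cell line, run in triplicate. Percent growth (G%) of treated cells measured and growth inhibition reported as GI% = 100 − G%; panel mean also given.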

[10] = system: A549/ATCC; assay: NCI 60 antitumor screening (single dose); format: cell-based; conditions: Homo sapiens; A549/ATCC (non-small cell lung cancer), single dose 10 μM; read-out: Growth inhibition percentage (GI %)
Method in brief: as §1

[11] = system: HOP-62; assay: NCI 60 antitumor screening (single dose); format: cell-based; conditions: Homo sapiens; HOP-62 (non-small cell lung cancer), single dose 10 μM; read-out: Growth inhibition percentage (GI %)
Method in brief: as §2

[12] = system: OVCAR-3; assay: NCI 60 antitumor screening (single dose); format: cell-based; conditions: Homo sapiens; OVCAR-3 (ovarian cancer), single dose 10 μM; read-out: Growth inhibition percentage (GI %)
Method in brief: as §1

[13] = system: NCI-H522; assay: NCI 60 antitumor screening (single dose); format: cell-based; conditions: Homo sapiens; NCI-H522 (non-small cell lung cancer), single dose 10 μM; read-out: Growth inhibition percentage (GI %)
Method in brief: as §2

[14] = system: HS 578T; assay: NCI 60 antitumor screening (single dose); format: cell-based; conditions: Homo sapiens; HS 578T (breast cancer), single dose 10 μM; read-out: Growth inhibition percentage (GI %)
Method in brief: as §1

[15] = system: PC-3; assay: NCI 60 antitumor screening (single dose); format: cell-based; conditions: Homo sapiens; PC-3 (prostate cancer), single dose 10 μM; read-out: Growth inhibition percentage (GI %)
Method in brief: as §1

[16] = system: NCI-H322M; assay: NCI 60 antitumor screening (single dose); format: cell-based; conditions: Homo sapiens; NCI-H322M (non-small cell lung cancer), single dose 10 μM; read-out: Growth inhibition percentage (GI %)
Method in brief: as §1

[17] = system: OVCAR-4; assay: NCI 60 antitumor screening (single dose); format: cell-based; conditions: Homo sapiens; OVCAR-4 (ovarian cancer), single dose 10 μM; read-out: Growth inhibition percentage (GI %)
Method in brief: as §1

[18] = system: NCI-H226; assay: NCI 60 antitumor screening (single dose); format: cell-based; conditions: Homo sapiens; NCI-H226 (non-small cell lung cancer), single dose 10 μM; read-out: Growth inhibition percentage (GI %)
Method in brief: as §1

[19] = system: OVCAR-5; assay: NCI 60 antitumor screening (single dose); format: cell-based; conditions: Homo sapiens; OVCAR-5 (ovarian cancer), single dose 10 μM; read-out: Growth inhibition percentage (GI %)
Method in brief: as §2

[20] = system: M14; assay: NCI 60 antitumor screening (single dose); format: cell-based; conditions: Homo sapiens; M14 (melanoma), single dose 10 μM; read-out: Growth inhibition percentage (GI %)
Method in brief: as §1

[21] = system: NCI-H460; assay: NCI 60 antitumor screening (single dose); format: cell-based; conditions: Homo sapiens; NCI-H460 (non-small cell lung cancer), single dose 10 μM; read-out: Growth inhibition percentage (GI %)
Method in brief: as §2

[22] = system: CAKI-1; assay: NCI 60 antitumor screening (single dose); format: cell-based; conditions: Homo sapiens; CAKI-1 (renal cancer), single dose 10 μM; read-out: Growth inhibition percentage (GI %)
Method in brief: as §1

[23] = system: NCI-H23; assay: NCI 60 antitumor screening (single dose); format: cell-based; conditions: Homo sapiens; NCI-H23 (non-small cell lung cancer), single dose 10 μM; read-out: Growth inhibition percentage (GI %)
Method in brief: as §2

[24] = system: U251; assay: NCI 60 antitumor screening (single dose); format: cell-based; conditions: Homo sapiens, U-251; U251 (CNS cancer), single dose 10 μM; read-out: Growth inhibition percentage (GI %)
Method in brief: as §2

[25] = system: SNB-19; assay: NCI 60 antitumor screening (single dose); format: cell-based; conditions: Homo sapiens; SNB-19 (CNS cancer), single dose 10 μM; read-out: Growth inhibition percentage (GI %)
Method in brief: as §1

[26] = system: TK-10; assay: NCI 60 antitumor screening (single dose); format: cell-based; conditions: Homo sapiens; TK-10 (renal cancer), single dose 10 μM; read-out: Growth inhibition percentage (GI %)
Method in brief: as §1

[27] = system: SK-OV-3; assay: NCI 60 antitumor screening (single dose); format: cell-based; conditions: Homo sapiens; SK-OV-3 (ovarian cancer), single dose 10 μM; read-out: Growth inhibition percentage (GI %)
Method in brief: as §2

[28] = MALME-3M (melanoma), single dose 10 μM
[29] = NCI/ADR-RES (ovarian cancer), single dose 10 μM
[30] = EKVX (non-small cell lung cancer), single dose 10 μM
[31] = SW-620 (colon cancer), single dose 10 μM, read-out: Growth inhibition percentage (GI %)
[32] = SR (leukaemia), single dose 10 μM
[33] = RPMI-8226 (leukaemia), single dose 10 μM, read-out: Growth inhibition percentage (GI %)

Row | Compound | inhibition at 10 µM [7] | inhibition at 10 µM [8] | inhibition at 10 µM [9] | inhibition at 10 µM [10] | inhibition at 10 µM [11] | inhibition at 10 µM [12] | inhibition at 10 µM [13] | inhibition at 10 µM [14] | inhibition at 10 µM [15] | inhibition at 10 µM [16] | inhibition at 10 µM [17] | inhibition at 10 µM [18] | inhibition at 10 µM [19] | inhibition at 10 µM [20] | inhibition at 10 µM [21] | inhibition at 10 µM [22] | inhibition at 10 µM [23] | inhibition at 10 µM [24] | inhibition at 10 µM [25] | inhibition at 10 µM [26] | also measured
1 | CN(C)c1ccc(/C=N/Nc2nc(N/N=C/c3ccc(N(C)C)cc3)nc(N3CCCCC3)n2)cc1 [compound 7g, 4-[(1e)-(2-{4-[(E)-2-{[4-(dimethylamino)phenyl]methylidene}chydrazin-1-yl]-6-(piperidin-1-yl)-1,3,5-triazin-2-yl}hydrazin-1-ylidene)methyl]-N,N-dimethylaniline] | 43.4% | 6.98% | -3.1% | 21.6% | 18.2% | 34.4% | 3.84% | -6.05% | 15.2% | -0.12% | -6.05% | -1.93% | 3.87% | 27.2% | 29.1% | 10.1% | 3.27% | 50% | 13.9% | -18.4% | inhibition at 10 µM [1, 28]: 167%; GI50 ([1]; MALME-3M, five doses (0.01–100 μM), read-out: GI50): 1860 nM; inhibition at 10 µM [2, 29]: 41.7%; GI50 ([2]; NCI/ADR-RES, five doses (0.01–100 μM), read-out: GI50): 3190 nM; inhibition at 10 µM [3, 30]: 2.99%; GI50 ([3]; EKVX, five doses (0.01–100 μM), read-out: GI50): 3130 nM; GI50 ([4]; SW-620, SW-620, five doses (0.01–100 μM), read-out: GI50): 1890 nM; inhibition at 10 µM [4, 31]: 35.8%; inhibition at 10 µM [5, 32]: 114%; GI50 ([5]; SR, five doses (0.01–100 μM), read-out: GI50): 360 nM; inhibition at 10 µM [6, 33]: 67.4%; GI50 ([6]; RPMI-8226, five doses (0.01–100 μM), read-out: GI50): 1920 nM; inhibition at 10 µM [27]: -31.8%
2 | Clc1cccc(/C=N/Nc2nc(N/N=C/c3cccc(Cl)c3Cl)nc(N3CCCCC3)n2)c1Cl [compound 7h, 2,4-Bis[(E)-2-[(2,3-Dichlorophenyl)methylidene]hydrazin-1-yl]-6-(piperidin-1-yl)-1,3,5-triazine] | 27.1% | 32.8% | 2.64% | 44.4% | 1.81% | 91.8% | 23.4% | 15% | 29.9% | 10% | 28.6% | 2.51% | 6.05% | 31.2% | 66.2% | 15.9% | 0.28% | 47.1% | 4.59% | 8.78% | inhibition at 10 µM [1, 28]: 7.49%; inhibition at 10 µM [2, 29]: 32.6%; inhibition at 10 µM [3, 30]: 11%; inhibition at 10 µM [4, 31]: 57.4%; inhibition at 10 µM [5, 32]: 66.6%; inhibition at 10 µM [6, 33]: 6.61%; inhibition at 10 µM [27]: -5.17%
3 | O=[N+]([O-])c1cc(/C=N/Nc2nc(N/N=C/c3ccc(Cl)c([N+](=O)[O-])c3)nc(N3CCCCC3)n2)ccc1Cl [compound 7i, 2,4-Bis[(E)-2-[(4-Chloro-3-nitrophenyl)methylidene]hydrazin-1-yl]-6-(piperidin-1-yl)-1,3,5-triazine] | 69% | 94.5% | 32.6% | -11.2% | 56.3% | 107% | 48.1% | 46.2% | 46.6% | 28.8% | 13.1% | 38.6% | -8.09% | 7.7% | 1.33% | 27.6% | 18.2% | 81.5% | 27.4% | 6.2% | inhibition at 10 µM ([1]; Malme-3M): -1.47%; inhibition at 10 µM ([2]; NCI/ADR-RES): 69.8%; inhibition at 10 µM ([3]; EKVX): 22%; inhibition at 10 µM ([4]; SW-620, read-out: Growth inhibition percentage (GI %)): 36.3%; inhibition at 10 µM ([5]; SR): 36.8%; inhibition at 10 µM ([6]; RPMI-8226, read-out: Growth inhibition percentage (GI %)): 81.7%; inhibition at 10 µM [27]: 1.24%

— PMC9848300, “Discovery of novel enasidenib analogues targeting inhibition of mutant isocitrate dehydrogenase 2 as antileukaemic agents” (Journal of Enzyme Inhibition and Medicinal Chemistry, 2023)
